Data taken from ChEMBL document CHEMBL1201862, “PubChem BioAssay data set” (2004).
Activity calls are given as the source filed them.

What was measured:
[1] = viability of uninfected HEp-2 cells – cell-based, HTS, cytotoxicity control for RSV inhibitor project, dose response (AID 2410); type: functional; settings: human respiratory syncytial virus
[2] = A cytotoxicity screen of small molecule inhibitors of the PhoP region in Salmonella typhi identified in the primary screen. [Related pubchem assays: 1850, 1864, 1985 ]; type: functional
Estrogen receptor = biological target: T1, Estrogen receptor (Homo sapiens, UniProt P03372);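 further: potency for inhibiting coactivator peptide recruitment to the receptor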
T1 sequence (P03372 whole entry): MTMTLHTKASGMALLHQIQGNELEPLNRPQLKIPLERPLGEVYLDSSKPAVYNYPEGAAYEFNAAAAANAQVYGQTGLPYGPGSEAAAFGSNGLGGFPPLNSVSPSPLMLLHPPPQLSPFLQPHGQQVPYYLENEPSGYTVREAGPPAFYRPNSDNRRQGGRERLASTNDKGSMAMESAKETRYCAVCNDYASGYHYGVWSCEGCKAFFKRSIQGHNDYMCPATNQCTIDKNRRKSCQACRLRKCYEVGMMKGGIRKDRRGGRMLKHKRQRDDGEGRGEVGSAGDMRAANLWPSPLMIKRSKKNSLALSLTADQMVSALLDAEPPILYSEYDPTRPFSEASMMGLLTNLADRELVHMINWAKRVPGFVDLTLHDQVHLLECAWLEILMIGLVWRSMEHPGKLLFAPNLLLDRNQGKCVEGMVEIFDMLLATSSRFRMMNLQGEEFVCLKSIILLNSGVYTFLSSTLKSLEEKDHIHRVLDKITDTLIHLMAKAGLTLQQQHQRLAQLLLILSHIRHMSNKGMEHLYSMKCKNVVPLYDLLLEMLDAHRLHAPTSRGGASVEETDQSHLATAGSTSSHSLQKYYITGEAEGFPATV

H9c2 = test: cells; type: functional, cell-based; settings: Rattus norvegicus, H9c2, Myocardium;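 further: confirmatory concentration-response retest of ultra-high-throughput screening hits for modulation of myocardial damage; cell death induced by hydrogen peroxide oxidative stress; compound pretreatment for 60 min then peroxide exposure for 2 h; potency is for protecting the cells against peroxide damage rather than for killing them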
[3] = biological target: T2, Corticotropin-releasing factor receptor 2/Corticotropin-releasing factor-binding protein (Homo sapiens, UniProt P24387+Q13324); test: activators of CRF receptor 2 with binding protein – uHTS hits, confirmation (AID 602473); type: functional; settings: read-out: EC50_Mean
T2 sequence (Q13324 whole entry): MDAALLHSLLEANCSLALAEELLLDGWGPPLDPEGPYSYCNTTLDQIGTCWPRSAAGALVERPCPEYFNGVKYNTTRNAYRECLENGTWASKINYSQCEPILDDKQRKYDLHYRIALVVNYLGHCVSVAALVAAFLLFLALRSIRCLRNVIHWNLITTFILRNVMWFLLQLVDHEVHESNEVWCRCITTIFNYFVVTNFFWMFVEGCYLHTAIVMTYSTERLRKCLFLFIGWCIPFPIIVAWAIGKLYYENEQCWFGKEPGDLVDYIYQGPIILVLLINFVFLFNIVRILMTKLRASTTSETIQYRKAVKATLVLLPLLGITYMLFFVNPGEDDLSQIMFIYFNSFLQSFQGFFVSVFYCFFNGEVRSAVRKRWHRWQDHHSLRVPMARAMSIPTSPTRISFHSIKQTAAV
T2 sequence (P24387 whole entry): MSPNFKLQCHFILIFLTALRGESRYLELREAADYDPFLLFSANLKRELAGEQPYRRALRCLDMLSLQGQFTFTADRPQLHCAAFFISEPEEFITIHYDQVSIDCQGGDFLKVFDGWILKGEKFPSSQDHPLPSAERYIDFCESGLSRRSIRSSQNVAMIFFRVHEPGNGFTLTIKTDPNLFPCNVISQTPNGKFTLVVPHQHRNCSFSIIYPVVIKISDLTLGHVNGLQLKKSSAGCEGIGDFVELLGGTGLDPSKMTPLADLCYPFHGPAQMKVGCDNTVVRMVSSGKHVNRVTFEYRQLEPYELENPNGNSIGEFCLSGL

[4] = biological target: Glyceraldehyde-3-phosphate dehydrogenase (Homo sapiens, UniProt P04406)
Chain of Glyceraldehyde-3-phosphate dehydrogenase (P04406 whole entry): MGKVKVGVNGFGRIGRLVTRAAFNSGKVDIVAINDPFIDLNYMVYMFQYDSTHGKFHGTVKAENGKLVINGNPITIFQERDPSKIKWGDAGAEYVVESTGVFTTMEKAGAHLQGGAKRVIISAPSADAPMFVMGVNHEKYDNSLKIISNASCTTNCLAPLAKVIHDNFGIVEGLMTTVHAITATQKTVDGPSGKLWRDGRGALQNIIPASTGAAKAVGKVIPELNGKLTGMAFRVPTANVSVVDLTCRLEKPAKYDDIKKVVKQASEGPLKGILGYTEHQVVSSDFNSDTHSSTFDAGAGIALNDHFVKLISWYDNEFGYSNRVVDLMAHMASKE

[5] = biological target: T3, High affinity choline transporter 1 (Homo sapiens, UniProt Q9GZV3); test: human choline transporter blockers, potency – cell-based, 5-point CRC, membrane potential dye, dose response (AID 504840); type: functional
T3 sequence (Q9GZV3 whole entry): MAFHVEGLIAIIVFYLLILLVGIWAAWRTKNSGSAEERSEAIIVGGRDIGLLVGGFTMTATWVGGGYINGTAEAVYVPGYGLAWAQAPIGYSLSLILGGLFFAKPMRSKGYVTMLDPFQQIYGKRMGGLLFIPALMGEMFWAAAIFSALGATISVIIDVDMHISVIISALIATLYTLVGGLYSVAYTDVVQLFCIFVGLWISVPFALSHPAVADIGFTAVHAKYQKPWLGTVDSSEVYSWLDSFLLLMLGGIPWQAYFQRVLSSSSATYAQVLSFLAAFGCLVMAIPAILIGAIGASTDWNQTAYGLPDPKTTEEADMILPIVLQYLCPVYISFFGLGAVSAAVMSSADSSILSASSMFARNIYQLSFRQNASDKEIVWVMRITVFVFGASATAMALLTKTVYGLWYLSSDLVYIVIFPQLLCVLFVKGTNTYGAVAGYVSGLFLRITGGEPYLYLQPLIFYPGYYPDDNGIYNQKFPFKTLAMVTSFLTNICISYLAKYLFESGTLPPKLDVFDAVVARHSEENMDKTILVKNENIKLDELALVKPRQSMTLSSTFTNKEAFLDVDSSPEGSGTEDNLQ

[6] = system: Streptococcus sp. 'group A'; test: Streptococcus pyogenes SK(-)GAS viability under kanamycin – luminescence, BacTiterGlo, confirmation, counter-screen for streptokinase expression inhibitor project, dose response (AID 1900); type: functional, organism-based
Streptokinase A = biological target: T4, Streptokinase A (Streptococcus pyogenes serotype M1, UniProt P10520); test: viability-normalized secreted streptokinase activity reduction – plasminogen activation absorbance, OD405, dose response (AID 1914); type: functional, Streptococcus pyogenes M1 GAS;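 further: secreted streptokinase activity via plasminogen activation per viability signal from cell pellet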
T4 sequence (P10520 whole entry): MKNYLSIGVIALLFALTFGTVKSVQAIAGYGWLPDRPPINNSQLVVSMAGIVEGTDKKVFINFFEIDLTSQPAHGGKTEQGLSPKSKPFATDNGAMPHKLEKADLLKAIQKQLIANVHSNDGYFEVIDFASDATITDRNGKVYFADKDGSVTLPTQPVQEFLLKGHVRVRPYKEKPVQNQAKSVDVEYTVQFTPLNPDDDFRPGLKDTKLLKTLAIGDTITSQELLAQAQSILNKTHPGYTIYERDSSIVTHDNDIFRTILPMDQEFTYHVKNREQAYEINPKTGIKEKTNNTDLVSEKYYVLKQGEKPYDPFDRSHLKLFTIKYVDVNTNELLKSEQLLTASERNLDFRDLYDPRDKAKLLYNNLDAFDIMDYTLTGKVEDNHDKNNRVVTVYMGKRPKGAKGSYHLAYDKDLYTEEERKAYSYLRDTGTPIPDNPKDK

Streptococcus = test: GAS UMAA2166 growth inhibition – luminescence, BacTiterGlo, counter-screen for streptokinase expression inhibitor project, dose response (AID 1915); type: functional, organism-based;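 further: potency for reduction of bacterial viability or growth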
Leucine aminopeptidase = biological target: T5, Leucine aminopeptidase (Plasmodium falciparum 3D7, UniProt Q8IL11); test: P. falciparum M17LAP inhibitors, primary screen, biochemical, fluorogenic H-Leu-NHMec substrate, 1536-well (AID 1619); type: functional
T5 sequence (Q8IL11 whole entry): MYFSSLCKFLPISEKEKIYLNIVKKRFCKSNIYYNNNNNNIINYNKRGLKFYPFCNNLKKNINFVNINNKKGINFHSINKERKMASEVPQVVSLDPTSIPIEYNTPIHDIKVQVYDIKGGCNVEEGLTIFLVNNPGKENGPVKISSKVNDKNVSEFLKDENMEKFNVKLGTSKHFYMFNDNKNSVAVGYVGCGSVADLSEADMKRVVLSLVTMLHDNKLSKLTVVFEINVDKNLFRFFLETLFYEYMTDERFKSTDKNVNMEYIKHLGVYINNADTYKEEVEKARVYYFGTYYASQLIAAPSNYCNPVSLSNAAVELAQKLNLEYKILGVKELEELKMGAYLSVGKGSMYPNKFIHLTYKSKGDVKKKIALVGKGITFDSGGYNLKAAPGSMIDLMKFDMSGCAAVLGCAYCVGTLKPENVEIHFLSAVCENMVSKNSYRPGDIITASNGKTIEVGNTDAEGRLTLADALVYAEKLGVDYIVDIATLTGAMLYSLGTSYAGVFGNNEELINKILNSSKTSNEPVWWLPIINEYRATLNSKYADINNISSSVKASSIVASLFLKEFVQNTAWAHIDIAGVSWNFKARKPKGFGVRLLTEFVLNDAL

Large T antigen = Large T antigen (Simian virus 40, UniProt P03070); type: functional, Betapolyomavirus macacae;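 further: Confirmatory-stage PubChem screen for compounds that inhibit SV40 T antigen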
Chain of Large T antigen (P03070 whole entry): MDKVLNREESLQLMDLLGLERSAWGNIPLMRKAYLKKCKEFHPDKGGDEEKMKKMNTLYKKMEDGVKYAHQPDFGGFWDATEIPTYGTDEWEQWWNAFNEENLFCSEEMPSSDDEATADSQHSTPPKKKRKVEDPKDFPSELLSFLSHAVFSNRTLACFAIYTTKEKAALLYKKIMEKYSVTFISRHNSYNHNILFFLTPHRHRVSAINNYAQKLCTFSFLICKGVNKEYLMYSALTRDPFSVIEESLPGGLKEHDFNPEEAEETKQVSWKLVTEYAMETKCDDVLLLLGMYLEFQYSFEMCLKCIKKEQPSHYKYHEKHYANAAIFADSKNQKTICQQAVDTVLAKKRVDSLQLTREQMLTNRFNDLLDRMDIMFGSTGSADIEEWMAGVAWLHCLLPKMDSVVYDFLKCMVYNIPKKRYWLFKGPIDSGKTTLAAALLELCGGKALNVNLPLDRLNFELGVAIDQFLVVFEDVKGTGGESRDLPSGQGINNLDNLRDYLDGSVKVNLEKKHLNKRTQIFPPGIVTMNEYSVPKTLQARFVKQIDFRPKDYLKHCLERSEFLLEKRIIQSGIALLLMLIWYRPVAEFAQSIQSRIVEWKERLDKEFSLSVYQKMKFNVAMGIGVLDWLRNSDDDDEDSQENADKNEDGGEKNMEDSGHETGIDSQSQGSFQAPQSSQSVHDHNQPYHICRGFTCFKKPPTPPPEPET

[7] = biological target: T6, Lysine-specific demethylase 4C (Homo sapiens, UniProt Q9H3R0); test: inhibition of JMJD2C H3K9me3 demethylation – biochemical, DELFIA europium, cherry-picked samples, dose response (AID 488835); type: functional
T6 sequence (Q9H3R0 whole entry): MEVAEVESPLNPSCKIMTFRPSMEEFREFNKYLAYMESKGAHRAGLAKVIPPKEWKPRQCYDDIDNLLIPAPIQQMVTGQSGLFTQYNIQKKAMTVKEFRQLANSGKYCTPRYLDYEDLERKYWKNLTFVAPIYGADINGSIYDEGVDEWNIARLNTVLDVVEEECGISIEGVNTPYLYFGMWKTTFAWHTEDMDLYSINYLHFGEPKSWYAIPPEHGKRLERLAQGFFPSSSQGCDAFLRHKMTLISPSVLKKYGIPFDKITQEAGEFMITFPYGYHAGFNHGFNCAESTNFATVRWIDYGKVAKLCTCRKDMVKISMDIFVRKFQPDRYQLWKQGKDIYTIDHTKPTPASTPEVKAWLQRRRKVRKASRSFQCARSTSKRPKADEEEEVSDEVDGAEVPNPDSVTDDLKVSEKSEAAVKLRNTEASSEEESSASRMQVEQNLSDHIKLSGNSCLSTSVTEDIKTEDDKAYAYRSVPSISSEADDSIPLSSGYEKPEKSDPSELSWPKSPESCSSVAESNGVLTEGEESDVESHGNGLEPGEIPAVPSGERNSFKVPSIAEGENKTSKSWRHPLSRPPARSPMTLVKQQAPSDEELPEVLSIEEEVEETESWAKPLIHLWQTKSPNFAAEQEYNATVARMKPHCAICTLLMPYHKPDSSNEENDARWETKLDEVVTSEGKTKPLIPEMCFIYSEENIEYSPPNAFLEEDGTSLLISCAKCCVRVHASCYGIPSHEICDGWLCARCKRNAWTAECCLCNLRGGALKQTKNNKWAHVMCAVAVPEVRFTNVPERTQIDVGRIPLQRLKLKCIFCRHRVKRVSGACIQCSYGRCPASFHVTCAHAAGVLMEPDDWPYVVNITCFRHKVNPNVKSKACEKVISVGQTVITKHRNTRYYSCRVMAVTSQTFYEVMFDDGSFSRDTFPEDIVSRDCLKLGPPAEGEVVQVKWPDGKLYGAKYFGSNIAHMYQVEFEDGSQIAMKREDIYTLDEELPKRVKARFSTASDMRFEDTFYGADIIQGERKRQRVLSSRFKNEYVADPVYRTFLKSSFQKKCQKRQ

SMILES: COc1cc(/C=N/NC(=O)COc2c(C)cc([N+](=O)[O-])cc2C)ccc1OC(=O)c1ccccc1
- CC50 [1]: 41.7 µM (active)
- IC50 (cells): 17.9 µM (active)

SMILES: CCOc1ccc(NC(S)=Nc2cc(C)[nH]n2)cc1
- EC50 [2]: > 50 µM (active)

SMILES: COc1cc(/C=c2\s/c(=C(/C#N)C(=O)N3CCCC3)n(-c3ccccc3)c2=O)ccc1O
- IC50 (Estrogen receptor): > 50 µM (not active)
- IC50 (H9c2): > 79 µM (inactive)
- EC50 [3]: 8.71 µM (active)

SMILES: O=C(CN1C2=NCCCN2c2ccccc21)c1ccc2c(c1)OCO2
- EC50 [2]: > 50 µM (active)

SMILES: COc1cc2[nH]c(=S)n(CC3CCCO3)c(=O)c2cc1OC (centres undefined)
- EC50 [2]: > 50 µM (active)

SMILES: CC(=O)Oc1ccc(-c2cccc(C(=O)NCC(=O)O)c2)cc1
- IC50 [4]: > 100 µM (not active)

SMILES: COc1ccc2[nH]cc(C(=O)CN3CCN(C4CCCCC4)CC3)c2c1
- IC50 (cells): 36.6 µM (active)

SMILES: Cc1cc(CN(C)C(=O)c2cc(COc3ccc(F)cc3Cl)on2)n[nH]1
- CC50 [1]: 39.1 µM (active)
- IC50 [5]: 9.89 µM (active)
- IC50 (cells): 24.6 µM (active)

SMILES: N#CC(C(=O)C12CC3CC(CC(C3)C1)C2)c1nc2ccccc2[nH]1 (centres undefined)
- EC50 [2]: > 50 µM (active)
- EC50 [6]: 5.14 µM (active)
- EC50 (Streptokinase A): 66 µM (active)
- EC50 (Streptococcus): > 150 µM (not active)

SMILES: O=C(CN1C(=O)c2ccccc2C1=O)Nc1ccc2c(c1)OCO2
- IC50 (Leucine aminopeptidase): 9.43 µM (active)

SMILES: CCOc1ccc(N2C(=O)C(CC(=O)Nc3ccc(F)cc3)N(Cc3ccccn3)C2=S)cc1 (centres undefined)
- CC50 [1]: 32.9 µM (active)
- IC50 (cells): 23.9 µM (active)

SMILES: Cc1nc(SCC(=O)Nc2ccc3c(c2)OCCO3)nc(C)c1C
- IC50 (Leucine aminopeptidase): 43.5 µM (active)

SMILES: CC(=O)c1cc2c(O)c(O)ccc2o1
- IC50 (Leucine aminopeptidase): 75.4 µM (active)
- IC50 (Large T antigen): 18.5 µM (active)
- AC50 [7]: 9.2 µM (active)
